Experimental data reported in publication PMC9025605, “Polymerized β-Cyclodextrin-Based Injectable Hydrogel for Sustained Release of 5-Fluorouracil/Methotrexate Mixture in Breast Cancer Management: In Vitro and In Vivo Analytical Validations” (Pharmaceutics, 2022).
Read-outs that look alike come from different tables or passages of the source.

Columns and labels:
mammary gland tissues = experiment: Histopathological examination of tumor masses (H and E); format: in vivo, female rats; conditions: tumor-bearing rats versus untreated G1
Procedure: Several tissue samples (n = 3) were taken from the tumor masses of the induced mammary glands and were fixed in formalin for 24 h. The fixed samples were processed for the usual histological procedures for hematoxylin and eosin stains, the counter staining of ultra-thin paraffin sections (5 µm; Micro HM 360® Microtome, Marshall Scientific, Hampton Virginia, USA). The stained sections were examined under a light microscope (Olympus B × 46) and were digitally photographed using its connected Olympus DP 21 digital camera (Olympus Corporation, Tokyo, Japan).

[1] = Pharmacokinetic study after intratumoral injection (plasma, HPLC); format: in vivo, albino female rats; conditions: for Cmax: rat plasma
Procedure: The present in vivo works was performed on albino female rats (weighing 185 ± 15.1 g). The ethical approval of all the experiments was issued by the Faculty of Pharmacy, Al-Azhar University, under no AZ-AS/PH/2/C/2021. The rats were acclimatized at room temperature with a 12-h light/12-h dark cycle. Tumor-induction of 48 female rats were randomly divided into the four independent groups (with n = 12 per each group × triple trials); G1 was the controlled group, which is positive control and were received no any type of medications; G2 received a sole dose of 5-FU saline solution (100 mg/kg); G3 received a combined mixture of 5-FU/MTX saline solution (respectively, 100 and 40 mg/kg); and, finally, G4 received 5-FU/MTX hydrogel. The sole 5-FU and/or combined with MTX doses in normal saline were injected into rats using normal syringes, while the injectable medicated hydrogel doses were injected using a mixing syringe device (Doowon Meditec Corp., Youngin City, Republic of Korea). After finishing the administration processes, blood samples were collected at certain time intervals (0.5, 1, 2, 4, 6, 8, 10, 12, and 14 h). HPLC chromatographic analysis was utilized for the detection of drug concentrations.
One mL of a plasma sample in an Eppendorf tube was initially mixed with phosphate buffer (0.2 mL of 0.5 M at pH 8), after being mixed in a vortex, and an ethyl acetate solution (4.0 mL) was added and mixed in a vortex for 1 min. Then, the contents of the tube were centrifuged at 5000 rpm and temperature 10 °C for 5 min. The organic phase was taken and evaporated until dry, by using a stream of nitrogen gas at 55 °C. The drug mixture in the residue was reconstituted by a solution of potassium dihydrogen phosphate (100 µL of 0.01 M, at pH 4.0), and, then, the resulted solution was filtrated through a 0.2 μm filter syringe, before transferring into autosampler vials of the chromatographic analysis.
A high-performance liquid chromatography, HPLC (Parkin Elmer, JASCO Corporation, Tokyo, Japan), equipped with an autosampler, was used through this study. The detection method was performed using a variable wavelength UV detector, which adjusted at 266 nm for both drugs. The analytical Phenomenex, C18 symmetry RPh-column (4.6 × 250 mm; 5 µm PS) (Cap cell Pak UG120, Shiseido, Tokyo, Japan), was used at 40 °C. The mobile phase was an isocratic mixture (89:11, v/v) of, respectively, methanol and potassium dihydrogen phosphate (10 mM and adjusted to pH 4 with the aid orthophosphoric acid), which was pumped at a flow rate of 1.0 mL/min. The injected volume was 20 µL.
The concentrations of 5-FU and MTX in different rats’ plasma samples (n = 6) were calculated from the corresponding calibration curves equation, developed in the above HPLC method. The plasma concentration-time (Cp/) curve of 5FU/MTX (plasma concentrations; µg/mL in case of using a vehicle of saline, and ng/mL in case of using a vehicle hydrogel) was constructed for both drugs. Next, from the constructed (Cp/t) curves, all the common pharmacokinetic parameters of both drugs were determined using the following Equation (1). […] Moreover, the area under the Cp/t curve (AUC0-24 and AUC0-∞) (ng. h/mL) was measured using the trapezoidal rule to indicate the extent of drug absorption. The peak Cp (Cmax), the time corresponding to the maximum Cp (Tmax), and the half-life, t1/2 (h), were calculated.

[2] = In vitro release of 5-FU and MTX from the medicated hydrogel in PBS at 37 °C; format: physicochemical; conditions: for duration of quantitative release from hydrogel: 0.1% w/v; for drug released from hydrogel within the first day / drug released from hydrogel within the second day: 0.1% w/v drug in hydrogel
Procedure: Several samples (n = 6) of the medicated hydrogel (0.5 g, containing 0.5 mg of each 5-FU and MTX), were placed in 2-mL glass vials and allowed to be incubated at 4 °C for 2 h. Next, one mL of PBS was added above the formulated hydrogel mass and allowed to be incubated in a thermostatic water bath under a shaking rate of 50 rpm at 37 °C. After specific time intervals (each 24 h), 700 µL of the supernatant was withdrawn and replaced immediately with a fresh-prepared PBS, previously incubated at the same temperature to ensure the sink conditions. This process of sample withdrawal and replacing was allowed to continue until the complete clearance or full release of both two incorporated drugs from the hydrogel samples. Thus, the concentration of 5-FU and MTX in the mixture, in each collected sample, was measured simultaneously at 266 nm and 302 nm, respectively, with the aid of the spectrophotometric method, as mentioned before.

[3] = design: method as in PMID 1246307, PMID 18794772, PMID 15018974; conditions: cited from earlier work
[4] = system: breast tumor (chemically induced breast cancer); experiment: Effect on tumor growth (tumor volume, % inhibition); format: in vivo, female rats; conditions: negative = tumor growth, read from Figure 6
Procedure: For transplantation experiments, recipient syngeneic female rats (6–7 weeks old) were anesthetized with an intramuscular injection of ketamine (8.0 mg/kg dose) and xylazine (10 mg/kg dose). Breast cancer was induced to the investigated rats by chemical induction using […], previously reported techniques. […] The tumor size for all animals was examined using a Vernier caliper (micrometer-Ozaki Ltd., Tokyo, Japan) and calculated using the following Equation (2). TV (mm^3) = 1/2 × Length × Width^2(2)
Thus, the changes in a tumor volume in rats were determined every 5 days for 15 days after administration of the injectable medicated hydrogel (contains a concentration of 100 and 40 mg/kg, respectively, for 5-FU and MTX). The antitumor effect was monitored via measuring both the relative tumor volume (RTV), representing the tumor volume after treatment, using Equation (3). (3) % RTV=(Vt)/(V0)×100 where, Vt represents the tumor volume at each time interval, and V0 is a tumor volume directly after drug injection. The % of tumor volume inhibition was calculated using the following Equation (4). (4) % Inhibition =1−(Vt)/(V0)×100

O=c1[nH]cc(F)c(=O)[nH]1 [5-FU, 5-fluorouracil]
histopathological finding in mammary gland tissue (mammary gland tissues): Only mild improvement
Tmax ([1]; female, rat, plasma, 100 mg/kg, sole administration of 5-FU in saline): 60 min
Cmax ([1]; female, 5-FU alone in saline, 100 mg/kg, intratumoral, read-out: Cmax): 25200 ng/mL
time within which in vivo release ended ([1]; free 5-FU solution, 100 mg/kg in saline): ≤ 7 h
elimination half-life (t1/2) ([1]; free 5-FU solution, first order): 30 min
duration of quantitative release from hydrogel [2]: two weeks
drug released from hydrogel within the first day [2]: 15%
drug released from hydrogel within the second day [2]: 38%
completeness of the release profile of 5-FU ([2]; drug concentration 0.1%): ≤ 14 days
completeness of the release profile of 5-FU ([2]; drug concentration 0.3%): ≤ 18 days
completeness of the release profile of 5-FU ([2]; drug concentration 0.5%): ≤ 21 days
half-life [3]: 10 to 20 min
% Inhibition of tumor volume ([4]; 5 days after treatment): -25%
% Inhibition of tumor volume ([4]; 10 days after treatment): -90%
% Inhibition of tumor volume ([4]; 15 days after treatment): -185%

CN(Cc1cnc2nc(N)nc(N)c2n1)c1ccc(C(=O)N[C@@H](CCC(=O)O)C(=O)O)cc1 [MTX, methotrexate]
Cmax ([1]; female, other: intratumoral injection, MTX 40 mg/kg, combined with 5-FU in saline, read-out: Cmax of MTX): 15200 ng/mL
duration of quantitative release from hydrogel [2]: two weeks
drug released from hydrogel within the first day [2]: 40%
drug released from hydrogel within the second day [2]: 60%
